Assay [1] concerns GOF Hec50co cells. As to the kind of experiment: BIBFs effect on NPs uptake using flow cytometry. Format: cell-based, human. To be noted: 1 μM BIBFs, 6 h, serum containing media. How it is done: (§1) BIBFs effect on NPs uptake using flow cytometry. The effect of BIBFs on the uptake of different RHDp against Hec50co cells and GOF Hec50co cells was tested. Both cell lines were plated at a seeding density of 10^5 cell/well in 12 well plate, and then the experiment was carried out as mentioned in section [00125]) with two exceptions: a) RHDp uptake was evaluated in the presence or absence of 1 μM BIBFs, b) the experiment was carried out in serum containing media to mimic the in vivo conditions.
(In general: A flow cytometer gives signals particle by particle.)

The test system of assay [2] is Hec50co cells. As to the kind of experiment: BIBFs effect on NPs uptake using flow cytometry. To be noted: 1 μM BIBFs, 6 h, serum containing media. Format: cell-based, human. The protocol:
as §1

Assay [3] deals with Hec50co cells. Conditions: 5 mg/kg each IV on days 18, 25, 32.
Procedure: In vivo efficacy studies using mouse xenograft model of LOF p53 USC. Female athymic NCI-nu/nu mice (Charles River, Wilmington, Mass.) at the age of 6-8 weeks were challenged subcutaneously with 2×10^6 Hec50co cells in the right flank after isoflurane anesthesia. […] Mice were 5 per group, except the group that received the combination therapy were 7. Treatments were administered TV through retro-orbital injections in the venous sinus on days 18, 25, and 32. The tumor diameters and height were measured using digital caliper. The tumor volumes were calculated from the following formula:
Where D1 is the first tumor diameter (mm), D2 is the second tumor diameter (mm), and H is the tumor height.
Mice weights were monitored during the experiment and mice were euthanized once the tumor diameter exceeded 2 cm or tumor height exceeded 1 cm. Sample sizes for this experiment were estimated based on preliminary data in order to have 80% power to detect significant differences between groups. All animal experiments were not blinded, and were carried out in accordance with guidelines and regulations approved by the University of Iowa Institutional Animal Care and Use Committee.

`COC(=O)c1ccc2c(c1)NC(=O)/C2=C(\Nc1ccc(N(C)C(=O)CN2CCN(C)CC2)cc1)c1ccccc1` [BIBFs, BIBF-1120]: the “increase in fluorescence intensity on addition to RHDp (75/T)” value in assay [1] and in assay [2] was 1.5 fold in each case.
In assay [3], `CC(=O)O[C@H]1C(=O)[C@@]2(C)[C@H]([C@H](OC(=O)c3ccccc3)[C@]3(O)C[C@H](OC(=O)[C@H](O)[C@@H](NC(=O)c4ccccc4)c4ccccc4)C(C)=C1C3(C)C)[C@]1(OC(C)=O)CO[C@@H]1C[C@@H]2O` [PTXs, paclitaxel] gave a median survival of 41 days.

The values above are taken from patent publication US20220110882A1, “SYNTHETICALLY LETHAL NANOPARTICLES FOR TREATMENT OF CANCERS” (UNIVERSITY OF IOWA RESEARCH FOUNDATION, priority 2017, published 2022).
